Legend:
Assay type in all cases: in vivo
Meloidogyne incognita = Meloidogyne incognita - test; conditions: 336 h, salad seedlings in sand, after 14 days, read-out: nematicidal activity (percentage of gall formation)
Procedure: Meloidogyne incognita—Test
Solvent: 125.0 parts by weight of acetone
(§1) To produce a suitable preparation of active compound, 1 part by weight of active compound is mixed with the stated amount of solvent, and the concentrate is diluted with water to the desired concentration.
Vessels are filled with sand, a solution of the active ingredient, a suspension containing eggs and larvae of the southern root-knot nematode (Meloidogyne incognita) and salad seeds. The salad seeds germinate and the seedlings grow. Galls develop in the roots.
After 14 days the nematicidal activity is determined on the basis of the percentage of gall formation. 100% means no galls were found and 0% means the number of galls found on the roots of the treated plants was equal to that in untreated control plants.

Diabrotica balteata = Diabrotica balteata - spray test; conditions: 168 h, 160 μg/well, germinated wheat seeds, larvae, after 7 days, read-out: efficacy in %
Procedure: Diabrotica balteata—Spray Test
(§2) To produce a suitable preparation of active compound, 1 part by weight of active compound is mixed with the stated amount of solvent, and the concentrate is diluted with water, containing an emulsifier concentration of 1000 ppm, to the desired concentration. Further test concentrations are prepared by dilution with emulsifier containing water.
Soaked wheat seeds (Triticum aestivum) are placed in a multiple well plate filled with agar and some water and are incubated for 1 day to germinate (5 seeds per well). The germinated wheat seeds are sprayed with a test solution containing the desired concentration of the active ingredient. Afterwards each unit is infected with 10-20 larvae of the banded cucumber beetle (Diabrotica balteata).
After 7 days efficacy in % is determined. 100% means all the seedlings have grown up like in the untreated, uninfected control; 0% means none of the seedlings have grown.

Myzus persicae = Myzus persicae - oral test; conditions: 120 h, read-out: mortality in %
Procedure: To produce a suitable preparation of active compound, 1 part by weight of active compound is mixed with the stated amount of solvent, and the concentrate is diluted with water to the desired concentration. 50 μl compound solution is filled in microtiter plates and 150 μl IPL41 insect medium (33%+15% sugar) is added to obtain a total volume of 200 μl per well. Afterwards the plates are sealed with parafilm through which a mixed population of the green peach aphid (Myzus persicae) can suck on the compound preparation.
(§3) After 5 days mortality in % is determined. 100% means all aphids have been killed and 0% means none of the aphids have been killed.

Aphis gossypii = Aphis gossypii - oral test; conditions: 120 h, read-out: mortality in %
Procedure: Solvent: 100 parts by weight acetone
as §1
50 μl compound solution is filled in microtiter plates and 150 μl IPL41 insect medium (33%+15% sugar) is added to obtain a total volume of 200 μl per well. Afterwards the plates are sealed with parafilm through which a mixed population of the cotton aphid (Aphis gossypii) can suck on the compound preparation.
as §3

Nezara viridula = Nezara viridula - spray test 1; conditions: in Hordeum vulgare, 96 h, read-out: mortality in %
Procedure: Nezara viridula—Spray Test 1
as §2
Barley plants (Hordeum vulgare) infested with larvae of the southern green stink bug (Nezara viridula) are sprayed with a test solution containing the desired concentration of the active ingredient.
After 4 days mortality in % is determined. 100% means all the stink bugs have been killed; 0% means none of the stink bugs have been killed.

Phaedon cochleariae = Phaedon cochleariae - spray test; conditions: in Brassica rapa, foliar, 168 h, read-out: mortality in %
Procedure: Phaedon cochleariae—Spray Test
as §2, with “solvents” for “solvent,”, “and” for “and the concentrate”
Chinese cabbage (Brassica pekinensis) leaf disks are sprayed with a preparation of the active ingredient of the desired concentration. Once dry, the leaf disks are infested with mustard beetle larvae (Phaedon cochleariae).
After 7 days mortality in % is determined. 100% means all beetle larvae have been killed and 0% means none of the beetle larvae have been killed.

Nilaparvata lugens = Nilaparvata lugens - spray test 1; conditions: in Oryza sativa, 96 h, read-out: mortality in %, 500 g/ha, rice plants, after 4 days
Procedure: Nilaparvata lugens—Spray Test 1
as §2, with “solvents” for “solvent,”, “and” for “and the concentrate”
Rice plants (Oryza sativa) are sprayed with a preparation of the active ingredient of the desired concentration and the plants are infested with the brown planthopper (Nilaparvata lugens).
After 4 days mortality in % is determined. 100% means all planthoppers have been killed and 0% means none of the planthoppers have been killed.

Spodoptera frugiperda = Spodoptera frugiperda - spray test; conditions: in Zea mays, 168 h, read-out: mortality in %
Procedure: Spodoptera frugiperda—Spray Test
as §2, with “solvents” for “solvent,”, “and” for “and the concentrate”
Maize (Zea mays) leaf sections are sprayed with a preparation of the active ingredient of the desired concentration. Once dry, the leaf sections are infested with fall armyworm larvae (Spodoptera frugiperda).
After 7 days mortality in % is determined. 100% means all caterpillars have been killed and 0% means none of the caterpillars have been killed.

Culex quinquefasciatus = assay: Culex test (CULXFAS surface treatment & contact assay); conditions: 30 minutes exposure, 24 hours after contact, read-out: efficacy (mortality in percent); for mortality at 4 mg/m2: surface concentration 4 mg/m^2, glazed tile; for mortality at 20 mg/m2: surface concentration 20 mg/m^2, glazed tile
Procedure: Culex Test (CULXFAS Surface Treatment & Contact Assay)
Solvent: Acetone+2000 ppm rapeseed oil methyl ester (RME)
(§4) In order to produce a sufficient, active ingredient containing solution it is necessary to solve the test-compound in an acetone/RME solvent mixture. This solution is pipetted onto a glazed tile and after evaporation of the acetone, adult mosquitoes of the species Culex quinquefasciatus (Brown house mosquito) are placed onto the dried surface. The exposure time is 30 minutes.
(§5) Mortality in percent (%) is determined 24 hours after contact to the treated surface. 100% mortality means that all test-insects are dead, whereas 0% means that not a single insect died.

[1] = tested on: Blattella germanica strain PAULINIA; assay: Blattella germanica test (BLTTGE surface treatment & contact assay); conditions: 30 minutes exposure, 24 hours after contact, read-out: efficacy (mortality in percent); for mortality at 4 mg/m2: surface concentration 4 mg/m^2, glazed tile; for mortality at 20 mg/m2: surface concentration 20 mg/m^2, glazed tile
Procedure: Blattella germanica Test (BLTTGE Surface Treatment & Contact Assay)
(§6) Solvent: Aceton+2000 ppm Rapeseed oil methyl ester (RME)
as §4, with “animals” for “mosquitoes”, “Blattella germanica strain PAULINIA” for “Culex quinquefasciatus (Brown house mosquito)”
as §5

[2] = tested on: Musca domestica strain WHO-N; assay: Musca domestica test (MUSCDO surface treatment & contact assay); conditions: 30 minutes exposure, 24 hours after contact, read-out: efficacy (mortality in percent); for mortality at 4 mg/m2: surface concentration 4 mg/m^2, glazed tile; for mortality at 20 mg/m2: surface concentration 20 mg/m^2, glazed tile
Procedure: Musca domestica Test (MUSCDO Surface Treatment & Contact Assay)
as §6
as §4, with “flies” for “mosquitoes”, “Musca domestica strain WHO-N” for “Culex quinquefasciatus (Brown house mosquito)”
as §5

[3] = tested on: Aedes aegypti strain MONHEIM; assay: Aedes test (AEDSAE surface treatment & contact assay); conditions: 30 minutes exposure, 24 hours after contact, read-out: efficacy (mortality in percent); for mortality at 4 mg/m2: surface concentration 4 mg/m^2, glazed tile; for mortality at 20 mg/m2: surface concentration 20 mg/m^2, glazed tile
Procedure: Aedes Test (AEDSAE Surface Treatment & Contact Assay)
Solvent: Aceton+2000 ppm rapeseed oil methyl ester (RME)
as §4, with “Aedes aegypti strain MONHEIM” for “Culex quinquefasciatus (Brown house mosquito)”
as §5

Row | SMILES | pest or weed control at 20 ppm (Meloidogyne incognita) | pest or weed control at 160 µg/disc, 160 µg/well (Diabrotica balteata) | mortality at 20 ppm (Myzus persicae) | mortality at 100 ppm (Aphis gossypii) | mortality at 500 g/ha (Nezara viridula) | mortality at 500 g/ha (Phaedon cochleariae) | mortality at 500 g/ha (Nilaparvata lugens) | mortality at 500 g/ha (Spodoptera frugiperda) | mortality at 4 mg/m2 (Culex quinquefasciatus) | mortality at 20 mg/m2 (Culex quinquefasciatus) | mortality at 4 mg/m2 [1] | mortality at 20 mg/m2 [1] | mortality at 4 mg/m2 [2] | mortality at 20 mg/m2 [2] | mortality at 4 mg/m2 [3] | mortality at 20 mg/m2 [3]
1 | CC(c1ncnn1-c1ncccn1)N(CC1CC1)C(=O)c1cccc(C#N)c1 (stereo not drawn) [Compound I-38, 3-cyano-N-(cyclopropylmethyl)-N-[1-(2-pyrimidin-2-yl-1,2,4-triazol-3-yl)ethyl]benzamide] | 100% | 100% | 100% | 100% | 100% | 100% |  |  |  |  |  |  |  |  |  | 
2 | CC(NC(=O)c1cc(C(F)(F)F)cc(C(F)(F)F)c1)c1ncnn1-c1ncccn1 (stereo not drawn) [Compound I-63, N-[1-(2-pyrimidin-2-yl-1,2,4-triazol-3-yl)ethyl]-3,5-bis(trifluoromethyl)benzamide] |  | 100% | 100% | 100% | 100% | 100% | 100% | 100% | 80 to 100% | 80 to 100% | 80 to 100% | 80 to 100% | 80 to 100% | 80 to 100% | 80 to 100% | 80 to 100%
3 | Cc1nc(C(C)N(CC2CC2)C(=O)c2cc(Cl)cc(C(F)(F)F)c2)n(-c2ncc(F)cn2)n1 (stereo not drawn) [Compound I-77, 3-chloro-N-(cyclopropylmethyl)-N-[1-[2-(5-fluoropyrimidin-2-yl)-5-methyl-1,2,4-triazol-3-yl]ethyl]-5-(trifluoromethyl)benzamide] |  | 100% | 100% | 100% | 100% | 100% | 100% | 100% | 80 to 100% | 80 to 100% |  | 80 to 100% | 80 to 100% | 80 to 100% |  | 80 to 100%
4 | CC(c1ncnn1-c1ncccn1)N(CC1CC1)C(=O)c1cncc(Br)c1 (stereo not drawn) [Compound I-79] | 100% | 100% |  |  | 90% | 100% | 100% |  |  |  |  |  |  |  |  | 
5 | CC(c1ncnn1-c1ncc(Cl)cn1)N(CC1CC1)C(=O)c1cc(Cl)cc(C(F)(F)F)c1 (stereo not drawn) [Compound I-80, 3-chloro-N-[1-[2-(5-chloropyrimidin-2-yl)-1,2,4-triazol-3-yl]ethyl]-N-(cyclopropylmethyl)-5-(trifluoromethyl)benzamide] | 90% | 100% | 100% | 100% | 100% | 100% |  | 100% |  |  |  |  |  |  |  | 
6 | CC(c1ncnn1-c1ncccn1)N(CC(F)F)C(=O)c1cc(Cl)cc(C(F)(F)F)c1 (stereo not drawn) [Compound I-89, 3-chloro-N-(2,2-difluoroethyl)-N-[1-(2-pyrimidin-2-yl-1,2,4-triazol-3-yl)ethyl]-5-(trifluoromethyl)benzamide] | 100% | 100% | 100% | 100% |  | 100% |  | 100% |  |  |  |  |  |  |  | 
7 | CC(c1ncnn1-c1ncccn1)N(CC1CC1)C(=O)c1cccc(Cl)c1 (stereo not drawn) [Compound I-108] | 90% | 100% |  |  | 100% | 100% | 100% |  |  |  |  |  |  |  |  | 
8 | CC(c1ncnn1-c1ncccn1)N(CC1CC1)C(=O)c1ccc(Cl)cc1 (stereo not drawn) [Compound I-109] | 100% | 100% |  |  |  |  |  |  |  |  |  |  |  |  |  | 
9 | CC(c1ncnn1-c1ncccn1)N(CC1CC1)C(=O)c1cc(Cl)c(Cl)c(Cl)c1 (stereo not drawn) [Compound I-111] | 90% |  |  |  |  |  |  |  |  |  |  |  |  |  |  | 
10 | CC(NC(=O)c1cc(Cl)cc(C#N)c1)c1ncnn1-c1ncccn1 (stereo not drawn) [Compound I-114, 3-chloro-5-cyano-N-[1-(2-pyrimidin-2-yl-1,2,4-triazol-3-yl)ethyl]benzamide] |  | 100% | 100% | 100% | 100% | 100% | 100% | 100% | 80 to 100% | 80 to 100% | 80 to 100% | 80 to 100% | 80 to 100% | 80 to 100% | 80 to 100% | 80 to 100%
11 | CC(NC(=O)c1cc(Cl)cc(OC(F)(F)F)c1)c1ncnn1-c1ncccn1 (stereo not drawn) [Compound I-119, 3-chloro-N-[1-(2-pyrimidin-2-yl-1,2,4-triazol-3-yl)ethyl]-5-(trifluoromethoxy)benzamide] |  | 100% | 100% | 100% | 100% | 100% | 100% | 100% | 80 to 100% | 80 to 100% | 80 to 100% | 80 to 100% | 80 to 100% | 80 to 100% | 80 to 100% | 80 to 100%
